Among the test systems are A549; EKVX; HCT-15; HT-29; IGROV-1; KM12; MDA-MB-231; MDA-N; NCI-H226; NCI-H522; OVCAR-4; OVCAR-5; RXF 393; SF-539; SK-MEL-2; SW-620; U-251; UACC-257; UO-31; HL-60.
Common to all, as to test: NCI tumour cell line growth inhibition, 48 h

These results are taken from ChEMBL document CHEMBL1201862, “PubChem BioAssay data set” (2004).

Several values for one entry are separate records, joined by “and”; a condition that tells them apart may be missing. Equal entries are not always repeated.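 Following 48 hours of exposure in 96-well plates, responses at five concentrations were used to interpolate endpoints linearly. GI50: concentration for 50% inhibition of growth.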 Activity calls are given as the source filed them. No stated cut-off is given here; in the data, active = GI50 up to about 1.1 µM and inactive = higher.

With `c1ccc(CCc2cccnc2)nc1`, the GI50 with A549 was > 100 µM (inactive); in the experiment with EKVX it was > 100 µM (inactive); in the experiment on HCT-15, greater than 100 µM; with HT-29 it was > 100 µM (inactive); in the experiment on IGROV-1 it was > 100 µM (inactive); in the experiment on KM12 it was > 100 µM (inactive). Also, the GI50 with MDA-MB-231 is > 100 µM (inactive); in the experiment with MDA-N, > 100 µM (inactive); in the experiment on NCI-H226 it was > 100 µM (inactive); in the experiment with NCI-H522 it was 45.7 µM (inactive); in the experiment on OVCAR-4 it was > 100 µM (inactive); with OVCAR-5 it was > 100 µM (inactive). The GI50 in the experiment on RXF 393, in the experiment with SF-539, in the experiment on SK-MEL-2, with SW-620, in the experiment with U-251 and in the experiment with UACC-257 was > 100 µM (inactive) throughout. In addition, in the experiment on UO-31, the GI50 is > 100 µM (inactive).
As for `COc1ccccc1[C@@H]1CCC2CC[C@@H](c3ccccc3OC)[N+]21Cc1ccccc1` (stereo partly drawn), the GI50 in the experiment on A549 is 1.99 µM (inactive); in the experiment on EKVX, 0.223 µM (active); in the experiment on HCT-15, 3.76 µM; with HL-60, 0.478 µM (active); in the experiment with HT-29, 0.847 µM (active); in the experiment with IGROV-1 it was 1.34 µM (inactive). Besides, the GI50 in the experiment on KM12 was 0.522 µM (active); with MDA-MB-231, 1.95 µM (inactive); in the experiment on MDA-N, 0.632 µM (active); in the experiment on NCI-H226, 1.39 µM (inactive); in the experiment with NCI-H522, 1.33 µM (inactive); in the experiment with OVCAR-4, 1.64 µM (inactive). For the same compound, the GI50 is 2.88 µM (inactive) in the experiment with OVCAR-5; 2 µM (inactive) in the experiment with RXF 393; 1.51 µM (inactive) in the experiment on SK-MEL-2; 2.6 µM (inactive) with SW-620; 0.385 µM (active) in the experiment on U-251; 0.521 µM (active) in the experiment on UACC-257. For the same compound, in the experiment with UO-31, the GI50 is 2.96 µM (inactive).
With `CCN(CC)CCCNc1nncc2cc3c([nH]c4ccccc43)c(C)c12`, the GI50 in the experiment with A549 is 10.8 µM (inactive); in the experiment on EKVX, 8.38 µM (inactive); in the experiment on HCT-15, 16 µM; in the experiment on HL-60, 5.02 µM (inactive); with HT-29, 4.03 µM (inactive); in the experiment on IGROV-1, 3.12 µM (inactive). Also, the GI50 in the experiment on KM12 is 5.18 µM (inactive); with MDA-MB-231, 4.65 µM (inactive); with MDA-N, 16.4 µM (inactive); with NCI-H226, 11.5 µM (inactive); with NCI-H522, 4.15 µM (inactive); in the experiment on OVCAR-5 it was 14.4 µM (inactive). Moreover, the GI50 with SF-539 was 16 µM (inactive); in the experiment on SK-MEL-2, 36.4 µM (inactive); in the experiment with SW-620 it was 4.4 µM (inactive); in the experiment on U-251, 6.04 µM (inactive); in the experiment on UACC-257 it was 15.6 µM (inactive); in the experiment on UO-31, 12.1 µM (inactive).
For the compound `Cn1c(N/N=C/c2ccccc2)nc(-c2ccc([N+](=O)[O-])cc2)c(C#N)c1=O`, the GI50 is 28.8 µM (inactive) with A549; 66.7 µM (inactive) in the experiment with EKVX; 30.5 µM with HCT-15; 11 µM (inactive) in the experiment on HL-60; 45.7 µM (inactive) with HT-29; 49.3 µM (inactive) with IGROV-1. Further, the GI50 is 26.9 µM (inactive) in the experiment with KM12; 19.5 µM (inactive) in the experiment on MDA-MB-231; 89.3 µM (inactive) in the experiment with MDA-N; 23.1 µM (inactive) in the experiment with NCI-H522; 29 µM (inactive) with OVCAR-4; 38.6 µM (inactive) in the experiment on OVCAR-5. Moreover, the GI50 in the experiment on RXF 393 is 53.8 µM (inactive); with SF-539, 69.2 µM (inactive); in the experiment with SK-MEL-2 it was 34.4 µM (inactive); in the experiment with SW-620 it was 65.8 µM (inactive); with U-251 it was 66.1 µM (inactive); in the experiment on UACC-257 it was 50 µM (inactive). Further, the GI50 in the experiment with UO-31 was 43.6 µM (inactive).
On to `C=C(CC(=O)Nc1ccc(C(=O)OC)o1)C(=O)OC`, for which the GI50 with A549 was 18.2 µM (inactive); with EKVX it was 21.8 µM (inactive); in the experiment on HCT-15 it was 24.7 µM; in the experiment on HT-29, 26.5 µM (inactive); in the experiment with IGROV-1, 23 µM (inactive); in the experiment with KM12 it was 19.9 µM (inactive). The GI50 was 27.7 µM (inactive) in the experiment on MDA-MB-231; > 10 µM (inactive) in the experiment with MDA-N; 26.5 µM (inactive) in the experiment on NCI-H226; 19.9 µM (inactive) in the experiment with NCI-H522; 30.7 µM (inactive) with OVCAR-4; 17.1 µM (inactive) in the experiment with OVCAR-5. The GI50 in the experiment with RXF 393 was 18.5 µM (inactive); in the experiment on SF-539, 17.3 µM (inactive); with SK-MEL-2 it was 20.7 µM (inactive); with SW-620 it was 22 µM (inactive); in the experiment on U-251 it was 35 µM (inactive); in the experiment on UACC-257, 21.3 µM (inactive). Also, in the experiment on UO-31, the GI50 is 20.6 µM (inactive).
As to `CC(CCOc1ccc2ccc(=O)oc2c1)C1=CC(=O)C(C)(C)O1` (stereo not drawn), the GI50 in the experiment with A549 is 2.87 µM (inactive); in the experiment on EKVX it was 2.68 µM (inactive); in the experiment on HCT-15 it was 1.71 µM; in the experiment with HL-60, 1.85 µM (inactive); with HT-29, 3.3 µM (inactive); with IGROV-1, 3.2 µM (inactive). Also, the GI50 in the experiment with KM12 is 2.17 µM (inactive); in the experiment with MDA-MB-231 it was 3.15 µM (inactive); in the experiment on MDA-N it was 2.77 µM (inactive); in the experiment with NCI-H226, 7.35 µM (inactive); in the experiment with NCI-H522, 1.51 µM (inactive); in the experiment on OVCAR-4, 5.73 µM (inactive). In addition, the GI50 is 9.27 µM (inactive) in the experiment with OVCAR-5; 1.69 µM (inactive) in the experiment on SF-539; 3.37 µM (inactive) in the experiment on SK-MEL-2; 1.92 µM (inactive) with SW-620; 2.69 µM (inactive) in the experiment with U-251; 6.73 µM (inactive) with UACC-257. Also, the GI50 in the experiment with UO-31 is 3.05 µM (inactive).
On to `CC(=O)Oc1ccc(-c2cc3ccccc3oc2=O)cc1OC(C)=O`, for which the GI50 is 14.8 µM (inactive) in the experiment on A549; 21.8 µM (inactive) in the experiment on EKVX; 10.7 µM with HCT-15; 1.89 µM (inactive) in the experiment on HL-60; 36 µM (inactive) in the experiment on HT-29; 11.8 µM (inactive) in the experiment with KM12. For the same compound, the GI50 was 28.6 µM (inactive) in the experiment on MDA-MB-231; 25.8 µM (inactive) in the experiment with MDA-N; 53.1 µM (inactive) with NCI-H226; 3.78 µM (inactive) with NCI-H522; 51.3 µM (inactive) in the experiment with OVCAR-4; 15.9 µM (inactive) with OVCAR-5. The GI50 was 21.6 µM (inactive) with SF-539; 38.5 µM (inactive) with SK-MEL-2; 33.3 µM (inactive) with SW-620; 32.7 µM (inactive) in the experiment with U-251; 24.4 µM (inactive) in the experiment with UACC-257; 10.9 µM (inactive) in the experiment on UO-31.
`CC1OC(OC2C(OC(=O)[C@]34CCC(C)(C)C[C@H]3C3=CC[C@@H]5[C@@]6(C)CC[C@H](OC7OC(CO)C(O)C(O)C7OC7OC(CO)C(O)C(O)C7O)C(C)(C)[C@@H]6CC[C@@]5(C)[C@]3(C)CC4)OCC(O)C2O)C(O)C(O)C1OC1OCC(O)C(OC2OCC(O)C(O)C2O)C1O` (stereo partly drawn): the GI50 with A549 is 3.01 µM (inactive) and 3.03 µM (inactive); in the experiment on EKVX it was 2.44 µM (inactive) and 2.97 µM (inactive); with HCT-15, 12.9 µM and 13 µM; in the experiment with HT-29 it was 3.02 µM (inactive) and 3.33 µM (inactive); in the experiment with IGROV-1, 11.9 µM (inactive) and 8.38 µM (inactive); in the experiment on KM12 it was 3.74 µM (inactive) and 3.59 µM (inactive). Further, the GI50 is 3.14 µM (inactive) and 2.84 µM (inactive) with MDA-MB-231; 1.64 µM (inactive) and 1.88 µM (inactive) in the experiment with MDA-N; 3.57 µM (inactive) and 3.8 µM (inactive) with NCI-H226; 2.65 µM (inactive) and 2.49 µM (inactive) with NCI-H522; 7.19 µM (inactive) and 5.41 µM (inactive) with OVCAR-4; 4.86 µM (inactive) and 5.37 µM (inactive) in the experiment on OVCAR-5. Moreover, the GI50 is 9.86 µM (inactive) and 6.75 µM (inactive) with RXF 393; 29.2 µM (inactive) and 19.5 µM (inactive) in the experiment on SF-539; 3.01 µM (inactive) and 2.9 µM (inactive) in the experiment with SK-MEL-2; 10.4 µM (inactive) and 11 µM (inactive) in the experiment on SW-620; 6.76 µM (inactive) and 9.84 µM (inactive) with U-251; 2.22 µM (inactive) and 2.33 µM (inactive) in the experiment on UACC-257. The GI50 in the experiment with UO-31 is 1.88 µM (inactive) and 1.99 µM (inactive).
As for `CC(C)=CCC(O)[C@](C)(O)[C@H]1[C@H](O)C[C@@]2(C)[C@@H]3CCc4cc(O)c(OC5OC(CO)C(O)C(O)C5O)cc4C3(C)C(=O)C[C@]12C` (stereo partly drawn), the GI50 in the experiment with A549 is > 100 µM (inactive); with EKVX, > 100 µM (inactive); with HCT-15 it was greater than 100 µM; with HT-29, > 100 µM (inactive); in the experiment with IGROV-1, 89.3 µM (inactive); in the experiment with KM12, > 100 µM (inactive). For the same compound, the GI50 with MDA-MB-231, in the experiment on MDA-N, in the experiment with NCI-H226, with NCI-H522, in the experiment on OVCAR-4 and in the experiment with OVCAR-5 was > 100 µM (inactive) each time. The GI50 in the experiment with RXF 393, in the experiment with SF-539, in the experiment with SK-MEL-2, with SW-620, in the experiment on U-251 and with UACC-257 was > 100 µM (inactive) in each case. Further, in the experiment on UO-31, the GI50 is > 100 µM (inactive).
On to `COc1ccc2nc3ccccc3c(NCCCCCN(CCCl)CCCl)c2c1`, for which the GI50 with A549 was < 0.0308 µM (active); with EKVX, 0.485 µM (active); in the experiment with HCT-15, 0.0619 µM; in the experiment on HL-60 it was < 0.0157 µM (active); in the experiment on HT-29, 0.0354 µM (active); in the experiment on IGROV-1, 0.177 µM (active). Also, the GI50 was 0.0933 µM (active) in the experiment on KM12; 0.257 µM (active) in the experiment on MDA-MB-231; 0.121 µM (active) with MDA-N; 0.101 µM (active) with NCI-H226; 0.0267 µM (active) in the experiment on NCI-H522; 0.0658 µM (active) with OVCAR-4. The GI50 in the experiment on OVCAR-5 was 0.207 µM (active); in the experiment with SF-539, 0.0787 µM (active); with SK-MEL-2, 0.194 µM (active); in the experiment on SW-620, 0.0227 µM (active); in the experiment with U-251, 0.0318 µM (active); in the experiment on UACC-257 it was 1.03 µM (active). For the same compound, the GI50 in the experiment on UO-31 is 0.0705 µM (active).
